Laboratory results taken from ChEMBL document CHEMBL1127611 (J Med Chem, 1994).

target: T1, Vesicular acetylcholine transporter (Torpedo californica, UniProt P81721); assay: In vitro binding affinity to vesamicol receptor using [3H]vesamicol.; set-up: species or system Tetronarce californica
T1 sequence (P81721 whole entry): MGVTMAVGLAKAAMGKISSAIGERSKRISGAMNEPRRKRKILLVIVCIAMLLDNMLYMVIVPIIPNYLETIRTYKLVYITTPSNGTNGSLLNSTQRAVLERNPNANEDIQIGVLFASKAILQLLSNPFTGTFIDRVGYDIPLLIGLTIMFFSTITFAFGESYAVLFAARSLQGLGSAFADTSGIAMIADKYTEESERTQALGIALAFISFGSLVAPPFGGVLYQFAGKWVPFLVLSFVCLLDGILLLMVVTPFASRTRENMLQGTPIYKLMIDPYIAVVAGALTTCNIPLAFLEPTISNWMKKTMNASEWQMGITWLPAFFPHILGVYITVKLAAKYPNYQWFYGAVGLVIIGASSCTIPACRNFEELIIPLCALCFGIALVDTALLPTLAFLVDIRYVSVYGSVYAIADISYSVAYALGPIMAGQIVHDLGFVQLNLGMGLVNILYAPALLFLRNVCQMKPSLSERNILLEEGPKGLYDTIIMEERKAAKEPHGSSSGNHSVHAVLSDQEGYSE

SMILES	Ki [nM]
O[C@@H]1CCN(Cc2ccccc2I)C[C@H]1N1CCC(c2ccccc2)CC1	0.147
O[C@@H]1CCN(Cc2ccc(I)cc2)C[C@H]1N1CCC2(CCc3ccccc32)CC1	0.8
O[C@@H]1Cc2ccccc2C[C@H]1N1CCC2(C=Cc3c(Br)cccc32)CC1	0.212
O[C@@H]1CCCC[C@H]1N1CCC2(CCc3ccccc32)CC1	7.59
O[C@@H]1CCN(Cc2cccc(I)c2)C[C@H]1N1CCC2(CCCc3ccccc32)CC1	0.856
O[C@@H]1Cc2ccccc2C[C@H]1N1CCC2(CC1)C(Br)=Cc1ccccc12	0.41
O[C@@H]1Cc2ccccc2C[C@H]1N1CCC2(C=Cc3ccc(Br)cc32)CC1	1.4
O[C@@H]1Cc2ccccc2C[C@H]1N1CCC2(C=Cc3cc(Br)ccc32)CC1	0.271
O[C@@H]1CCN(Cc2ccccc2I)C[C@H]1N1CCC2(CCc3ccccc32)CC1	0.98
O[C@@H]1CCN(Cc2cccc(I)c2)C[C@H]1N1CCC(c2ccccc2)CC1	0.063
O[C@@H]1CCN(Cc2ccccc2I)C[C@H]1N1CCC2(CCCc3ccccc32)CC1	5.8
O[C@@H]1CCN(Cc2ccc(I)cc2)C[C@H]1N1CCC(c2ccccc2)CC1	0.05
O[C@@H]1CCN(Cc2ccc(F)cc2)C[C@H]1N1CCC2(CCCc3ccccc32)CC1	2.64
O[C@@H]1CCN(Cc2cccc(I)c2)C[C@H]1N1CCC2(C=Cc3ccccc32)CC1	0.264
O[C@@H]1CCN(Cc2ccccc2I)C[C@H]1N1CCC2(C=Cc3ccccc32)CC1	0.798
O[C@@H]1CCN(Cc2ccc(I)cc2)C[C@H]1N1CCC2(CCCc3ccccc32)CC1	0.638
O[C@@H]1CCCC[C@H]1N1CCC2(C=Cc3ccccc32)CC1	6.93
Nc1cccc2c1C[C@@H](N1CCC(c3ccccc3)CC1)[C@H](O)C2	0.0065
O[C@@H]1CCN(Cc2ccc(F)cc2)C[C@H]1N1CCC2(CCc3ccccc32)CC1	0.36
O[C@@H]1Cc2ccccc2C[C@H]1N1CCC2(CCCc3ccccc32)CC1	18.4
O[C@@H]1Cc2ccccc2C[C@H]1N1CCC2(CCc3ccccc32)CC1	0.36
O[C@@H]1Cc2ccccc2C[C@H]1N1CCC2(C=Cc3ccccc32)CC1	0.121
O[C@@H]1CCCC[C@H]1N1CCC2(CCCc3ccccc32)CC1	24.2
O[C@@H]1CCN(Cc2ccc(F)cc2)C[C@H]1N1CCC2(C=Cc3ccccc32)CC1	0.248
O[C@@H]1CCN(Cc2ccc(I)cc2)C[C@H]1N1CCC2(C=Cc3ccccc32)CC1	0.762
